Reference: patent US12624018B1, “Inhibitors of RIPK2 and medical uses thereof” (Odyssey Therapeutics, Inc., priority 2022, dated 2026)

How the values were obtained:
human NOD2 signaling = test: Inhibition of human NOD2 signaling in HEK-Blue-hNOD2 cells (L18-MDP stimulated, SEAP reporter); assay type: cell-based; conditions: Homo sapiens, HEK-Blue hNOD2, HEK-Blue-hNOD2 cells, NOD2 ligand stimulation, SEAP reporter; read-out: hNOD2 IC50
Outline: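 Read-out is SEAP absorbance at 620 nm after 3 h QUANTI-Blue development of supernatant from HEK293 cells carrying NOD2 and a SEAP reporter (12500/well). Cells got compound (10 points, 3-fold dilutions) and 0.5 ng/mL L18-MDP for 24 h at 37 °C; percent inhibition vs stimulated/unstimulated controls, 4-parameter IC50.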

RIPK2 enzyme = target: T1, RIPK2 enzyme (Homo sapiens, UniProt O43353); test: RIPK2 inhibition (ADP-Glo Kinase Assay); assay type: biochemical; conditions: RIPK2 5 nM, ATP 150 μM, MBP substrate, read-out: RIPK2 IC50
T1 construct: purchased Carna 09-128
Outline: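 Swine MBP substrate; compound and 5 nM RIPK2 first mixed for 30 min at room temperature; buffer pH 7.5 HEPES 50 mM with 10 mM MgCl2, 2 mM DTT, 1 mM EGTA, Brij-35, BSA.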

T1 sequence (O43353 1-299 limits assumed): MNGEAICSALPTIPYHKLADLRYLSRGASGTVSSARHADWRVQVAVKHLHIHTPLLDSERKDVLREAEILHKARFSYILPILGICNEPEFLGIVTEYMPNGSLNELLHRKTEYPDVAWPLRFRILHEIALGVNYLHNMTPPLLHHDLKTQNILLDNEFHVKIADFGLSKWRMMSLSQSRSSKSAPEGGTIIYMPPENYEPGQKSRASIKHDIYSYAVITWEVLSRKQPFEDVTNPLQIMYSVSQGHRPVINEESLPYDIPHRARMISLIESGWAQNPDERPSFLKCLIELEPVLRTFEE

Row | Structure (SMILES) | IC50 (human NOD2 signaling) | IC50 (RIPK2 enzyme)
1 | COc1cc2nccc(Oc3ccc(CC(=O)Nc4cnn(C(C)(C)C)c4)cc3C(F)F)c2cc1C(N)=O [Compound 578, 4-(4-(2-((1-(tert-butyl)-1H-pyrazol-4-yl)amino)-2-oxoethyl)-2-(difluoromethyl)phenoxy)-7-methoxy-quinoline-6-carboxamide] | 0.7 nM | < 2.5 nM
2 | CNC(=O)c1cc2c(Oc3ccc(CC(=O)Nc4cnn(C(C)(C)C)c4)cc3C(F)F)ccnc2cc1OC [Compound 579, 4-(4-(2-((1-(tert-butyl)-1H-pyrazol-4-yl)amino)-2-oxoethyl)-2-(difluoromethyl)phenoxy)-7-methoxy-N-methylquinoline-6-carboxamide] | 0.8 nM | < 2.5 nM
3 | [2H]C([2H])([2H])NC(=O)c1cc2c(Oc3ccc(CC(=O)Nc4cnn(C(C)(C)C)c4)cc3C(F)F)ccnc2cc1OC [Compound 580, 4-(4-(2-((1-(tert-butyl)-1H-pyrazol-4-yl)amino)-2-oxoethyl)-2-(difluoromethyl)phenoxy)-7-methoxy-N-(methyl-d3)quinoline-6-carboxamide] | 1.2 nM | < 2.5 nM
4 | [2H]C([2H])([2H])NC(=O)c1cc2c(Oc3c(C)cc(CC(=O)Nc4cnn(C(C)(C)C)c4)cc3Cl)ccnc2cc1F [Compound 586, 4-(4-(2-((1-(tert-butyl)-1H-pyrazol-4-yl)amino)-2-oxoethyl)-2-chloro-6-methylphenoxy)-7-fluoro-N-(methyl-d3)quinoline-6-carboxamide] | 0.6 nM | < 2.5 nM
5 | Cc1cc(CC(=O)Nc2cnn(C34CC(C3)C4)c2)cc(C)c1Oc1ccnc2ccc(C(N)=O)cc12 [Compound 587, 4-(4-(2-((1-(bicyclo[1.1.1]pentan-1-yl)-1H-pyrazol-4-yl)amino)-2-oxoethyl)-2,6-dimethylphenoxy)quinoline-6-carboxamide] | 28.6 nM | < 2.5 nM
6 | CNC(=O)c1ccc2nccc(Oc3c(C)cc(CC(=O)Nc4cnn(C56CC(C5)C6)c4)cc3C)c2c1 [Compound 588, 4-(4-(2-((1-(bicyclo[1.1.1]pentan-1-yl)-1H-pyrazol-4-yl)amino)-2-oxoethyl)-2,6-dimethylphenoxy)-N-methylquinoline-6-carboxamide] | 36 nM | < 2.5 nM
7 | [2H]C([2H])([2H])NC(=O)c1ccc2nccc(Oc3c(C)cc(CC(=O)Nc4cnn(C56CC(C5)C6)c4)cc3C)c2c1 [Compound 589, 4-(4-(2-((1-(bicyclo[1.1.1]pentan-1-yl)-1H-pyrazol-4-yl)amino)-2-oxoethyl)-2,6-dimethylphenoxy)-N-(methyl-d3)quinoline-6-carboxamide] | 48.6 nM | < 2.5 nM
8 | Cc1cc(CC(=O)Nc2cnn(C34CC(C3)C4)c2)cc(Cl)c1Oc1ccnc2ccc(C(N)=O)cc12 [Compound 590, 4-(4-(2-((1-(bicyclo[1.1.1]pentan-1-yl)-1H-pyrazol-4-yl)amino)-2-oxoethyl)-2-chloro-6-methylphenoxy)quinoline-6-carboxamide] | 31.2 nM | < 2.5 nM
9 | CNC(=O)c1ccc2nccc(Oc3c(C)cc(CC(=O)Nc4cnn(C56CC(C5)C6)c4)cc3Cl)c2c1 [Compound 591, 4-(4-(2-((1-(bicyclo[1.1.1]pentan-1-yl)-1H-pyrazol-4-yl)amino)-2-oxoethyl)-2-chloro-6-methylphenoxy)-N-methylquinoline-6-carboxamide] | 46.7 nM | < 2.5 nM
10 | [2H]C([2H])([2H])NC(=O)c1ccc2nccc(Oc3c(C)cc(CC(=O)Nc4cnn(C56CC(C5)C6)c4)cc3Cl)c2c1 [Compound 592, 4-(4-(2-((1-(bicyclo[1.1.1]pentan-1-yl)-1H-pyrazol-4-yl)amino)-2-oxoethyl)-2-chloro-6-methylphenoxy)-N-(methyl-d3)quinoline-6-carboxamide] | 80.2 nM | 2.8 nM
11 | [2H]C([2H])([2H])C(n1cc(NC(=O)Cc2cc(C)c(Oc3ccnc4cc(F)c(C(=O)NC)cc34)cc2F)cn1)(C([2H])([2H])[2H])C([2H])([2H])[2H] [Compound 596, 7-fluoro-4-(5-fluoro-2-methyl-4-(2-((1-(2-(methyl-d3)propan-2-yl-1,1,1,3,3,3-d6)-1H-pyrazol-4-yl)amino)-2-oxoethyl)phenoxy)-N-methylquinoline-6-carboxamide] | 0.7 nM | < 2.5 nM
12 | [2H]C([2H])([2H])C(n1cc(NC(=O)Cc2ccc(Oc3ccnc4ccc(S(C)(=O)=O)cc34)c(C)c2)cn1)(C([2H])([2H])[2H])C([2H])([2H])[2H] [Compound 597, 2-(3-methyl-4-((6-(methylsulfonyl)quinolin-4-yl)oxy)phenyl)-N-(1-(2-(methyl-d3)propan-2-yl-1,1,1,3,3,3-d6)-1H-pyrazol-4-yl)acetamide] | 1.3 nM | < 2.5 nM
13 | Cc1cc(CC(=O)Nc2cnn(C(C)(C)C)c2)cc(F)c1Oc1ccnc2cc(F)c(C(N)=O)cc12 [Compound 598, 4-(4-(2-((1-(tert-butyl)-1H-pyrazol-4-yl)amino)-2-oxoethyl)-2-fluoro-6-methylphenoxy)-7-fluoroquinoline-6-carboxamide] | 2.3 nM | < 2.5 nM
14 | CNC(=O)c1cc2c(Oc3c(C)cc(CC(=O)Nc4cnn(C(C)(C)C)c4)cc3F)ccnc2cc1F [Compound 599, 4-(4-(2-((1-(tert-butyl)-1H-pyrazol-4-yl)amino)-2-oxoethyl)-2-fluoro-6-methylphenoxy)-7-fluoro-N-methylquinoline-6-carboxamide] | 1.7 nM | < 2.5 nM
15 | [2H]C([2H])([2H])NC(=O)c1cc2c(Oc3c(C)cc(CC(=O)Nc4cnn(C(C)(C)C)c4)cc3F)ccnc2cc1F [Compound 600, 4-(4-(2-((1-(tert-butyl)-1H-pyrazol-4-yl)amino)-2-oxoethyl)-2-fluoro-6-methylphenoxy)-7-fluoro-N-(methyl-d3)quinoline-6-carboxamide] | 1.4 nM | < 2.5 nM
16 | [2H]C([2H])([2H])C(n1cc(NC(=O)Cc2cc(C)c(Oc3ccnc4cc(F)c(C(=O)NC)cc34)c(F)c2)cn1)(C([2H])([2H])[2H])C([2H])([2H])[2H] [Compound 601, 7-fluoro-4-(2-fluoro-6-methyl-4-(2-((1-(2-(methyl-d3)propan-2-yl-1,1,1,3,3,3-d6)-1H-pyrazol-4-yl)amino)-2-oxoethyl)phenoxy)-N-methylquinoline-6-carboxamide] | 1.4 nM | < 2.5 nM
17 | Cc1cc(CC(=O)Nc2cnn(C(C)(C)C)c2)cc(F)c1Oc1ccnc2cc(Cl)c(C(N)=O)cc12 [Compound 602, 4-(4-(2-((1-(tert-butyl)-1H-pyrazol-4-yl)amino)-2-oxoethyl)-2-fluoro-6-methylphenoxy)-7-chloroquinoline-6-carboxamide] | 8 nM | < 2.5 nM
18 | Cc1cc(CC(=O)Nc2cnn(C(C)(C)C)c2)ccc1Oc1ccnc2ccc(C3(C(N)=O)CC3)cc12 [Compound 603, 1-(4-(4-(2-((1-(tert-butyl)-1H-pyrazol-4-yl)amino)-2-oxoethyl)-2-methylphenoxy)quinolin-6-yl)cyclopropane-1-carboxamide] | 2.5 nM | < 2.5 nM
19 | Cc1cc(CC(=O)Nc2cnn(C(C)(C)C)c2)ccc1Oc1ccnc2ccc(C3(C(N)=O)CCC3)cc12 [Compound 604, 1-(4-(4-(2-((1-(tert-butyl)-1H-pyrazol-4-yl)amino)-2-oxoethyl)-2-methylphenoxy)quinolin-6-yl)cyclobutane-1-carboxamide] | 12.4 nM | < 2.5 nM
20 | Cc1cc(CC(=O)Nc2cnn(C(C)(C)C)c2)ccc1Oc1ccnc2ccc(C3(S(C)(=O)=O)CC3)cc12 [Compound 605, N-(1-(tert-butyl)-1H-pyrazol-4-yl)-2-(3-methyl-4-((6-(1-(methylsulfonyl)cyclopropyl)quinolin-4-yl)oxy)phenyl)acetamide] | 15.6 nM | < 2.5 nM
21 | Cc1c(Oc2ccnc3ccc(C4(C(N)=O)CCC4)cc23)cc(F)c(CC(=O)Nc2cnn(C(C)(C)C)c2)c1F [Compound 606, 1-(4-(4-(2-((1-(tert-butyl)-1H-pyrazol-4-yl)amino)-2-oxoethyl)-3,5-difluoro-2-methylphenoxy)quinolin-6-yl)cyclobutane-1-carboxamide] | 0.8 nM | 3.8 nM
22 | Cc1c(Oc2ccnc3ccc(C4(S(C)(=O)=O)CC4)cc23)cc(F)c(CC(=O)Nc2cnn(C(C)(C)C)c2)c1F [Compound 607, N-(1-(tert-butyl)-1H-pyrazol-4-yl)-2-(2,6-difluoro-3-methyl-4-((6-(1-(methylsulfonyl)cyclopropyl)quinolin-4-yl)oxy)phenyl)acetamide] | 6.1 nM | 3.5 nM
23 | [2H]C([2H])([2H])C(n1cc(NC(=O)Cc2cc(C)c(Oc3ccnc4cc(F)c(C(N)=O)cc34)c(F)c2)cn1)(C([2H])([2H])[2H])C([2H])([2H])[2H] [Compound 608, 7-fluoro-4-(2-fluoro-6-methyl-4-(2-((1-(2-(methyl-d3)propan-2-yl-1,1,1,3,3,3-d6)-1H-pyrazol-4-yl)amino)-2-oxoethyl)phenoxy) quinoline-6-carboxamide] | 1.6 nM | 2.5 nM
24 | Cc1c(Oc2ccnc3cc(F)c(C(N)=O)cc23)ccc(CC(=O)Nc2cnn(C(C)(C)C)c2)c1C#N [Compound 610, 4-(4-(2-((1-(tert-butyl)-1H-pyrazol-4-yl)amino)-2-oxoethyl)-3-cyano-2-methylphenoxy)-7-fluoroquinoline-6-carboxamide] | 2.1 nM | < 2.5 nM
